Here are results for 41 compounds from patent US11634393B2, “Substituted tolyl fungicides” (FMC CORPORATION, priority 2018, dated 2023).

Test [1] concerns Phakopsora pachyrhizi. Put plainly: Test D: Asian soybean rust, spray on soybean seedlings, disease control rating. The test is classed as in vivo. To be noted: Rate 10 ppm, 100 = 100% disease control, 0 = no disease control relative to the controls; for pest or weed control at 10 ppm: Phakopsora pachyrhizi, 216 h. The source says:
(§1) General protocol for preparing test suspensions for Tests A-F: the test compounds were first dissolved in acetone in an amount equal to 3% of the final volume and then suspended at the desired concentration (in ppm) in acetone and purified water (50/50 mix by volume) containing 250 ppm of the surfactant PEG400 (polyhydric alcohol esters). The resulting test suspensions were then used in Tests A-F.
The test solution was sprayed to the point of run-off on soybean seedlings. The following day the seedlings were inoculated with a spore suspension of Phakopsora pachyrhizi (the causal agent of Asian soybean rust) and incubated in a saturated atmosphere at 22° C. for 24 h and then moved to a growth chamber at 22° C. for 8 days, after which time visual disease ratings were made.
(§2) A rating of 100 indicates 100% disease control and a rating of 0 indicates no disease control (relative to the controls). A dash (-) indicates the compound was not tested.

Test [2] deals with Puccinia recondita f. sp. tritici. As to the kind of experiment: Test B: wheat leaf rust, spray on wheat seedlings, disease control rating. Type of test: in vivo. To be noted: Rate 10 ppm, 100 = 100% disease control, 0 = no disease control relative to the controls; for pest or weed control at 10 ppm: Puccinia recondita, 192 h.
Description: as §1
The test solution was sprayed to the point of run-off on wheat seedlings. The following day the seedlings were inoculated with a spore suspension of Puccinia recondita f. sp. tritici (the causal agent of wheat leaf rust) and incubated in a saturated atmosphere at 20° C. for 24 h, and then moved to a growth chamber at 20° C. for 7 days, after which time disease ratings were made.
as §2

Structures are written as SMILES.

The pest or weed control is the degree to which the test organism was suppressed or injured, in per cent. In the case of `COC(=O)NCc1cc(-c2ccn(-c3c(F)cc(N)cc3F)n2)ccc1C` [Compound 5, methyl N-[[5-[1-(4-amino-2,6-difluorophenyl)-1H-pyrazol-3-yl]-2-methylphenyl]methyl]carbamate], the pest or weed control at 10 ppm in test [1] and in test [2] was 0% each time.
Regarding `COC(=O)NCc1cc(-c2ccn(-c3c(F)cc(Br)cc3F)n2)ccc1C` [Compound 7, methyl N-[[5-[1-(4-bromo-2,6-difluorophenyl)-1H-pyrazol-3-yl]-2-methylphenyl]methyl]carbamate], the pest or weed control at 10 ppm in test [1] and in test [2] was 100% throughout.
`COC(=O)NCc1cc(-c2ccn(-c3c(F)cc(I)cc3F)n2)ccc1C` [Compound 8, methyl N-[[5-[1-(2,6-difluoro-4-iodophenyl)-1H-pyrazol-3-yl]-2-methylphenyl]methyl]carbamate]: the pest or weed control at 10 ppm in test [1] and in test [2] was 100% each time.
Take `COC(=O)NCc1cc(-c2ccn(-c3c(F)cc(OCC4CC4)cc3F)n2)ccc1C` [Compound 9]: in test [1], the “Test D disease control rating” value worked out at 99%. Also, the “Test B disease control rating” value in test [2] was determined as 99%.
With `COC(=O)NCc1cc(-c2ccn(-c3c(F)cc(O)cc3F)n2)ccc1C` [Compound 10, methyl N-[[5-[1-(2,6-difluoro-4-hydroxyphenyl)-1H-pyrazol-3-yl]-2-methylphenyl]methyl]carbamate], the pest or weed control at 10 ppm in test [1] and in test [2] was 0% in each case.
For the compound `COC(=O)NCc1cc(-c2ccn(-c3c(F)cc(OCC(C)C)cc3F)n2)ccc1C` [Compound 12], in test [1], the “Test D disease control rating” value was determined as 100%. Moreover, in test [2], the “Test B disease control rating” value is listed as 98%.
Turning to `COC(=O)NCc1cc(-c2ccn(-c3c(F)cc(OC(C)C)cc3F)n2)ccc1C` [Compound 14, methyl N-[[5-[1-[2,6-difluoro-4-(1-methylethoxy)phenyl]-1H-pyrazol-3-yl]-2-methylphenyl]methyl]carbamate], the pest or weed control at 10 ppm in test [1] and in test [2] was 100% throughout.
Turning to `COC(=O)NCc1cc(-c2ccn(-c3c(F)cc(F)cc3F)n2)ccc1C` [Compound 16], the results for the pest or weed control at 10 ppm in test [1] and in test [2] were 100% and 99%, respectively.
On to `COC(=O)NCc1cc(-c2ccn(-c3c(F)cc(OC(=O)OC)cc3F)n2)ccc1C` [Compound 17], for which the “Test D disease control rating” value in test [1] came out at 0%. Further, in test [2], the “Test B disease control rating” value turned out to be 0%.
On to `COC(=O)NCc1cc(-c2ccn(-c3c(F)cc(OC(C)=O)cc3F)n2)ccc1C` [Compound 18], for which, in test [1], the “Test D disease control rating” value amounted to 65%. In addition, the “Test B disease control rating” value in test [2] is given as 41%.
For `COC(=O)NCc1cc(-c2ccn(-c3c(F)cc(F)cc3SC)n2)ccc1C` [Compound 19], the pest or weed control at 10 ppm in test [1] amounted to 81%; in test [2], 0%.
For `COC(=O)NCc1cc(-c2ccn(-c3c(SC)cc(F)cc3SC)n2)ccc1C` [Compound 20] the same measures were 0% and 0%.
Regarding `COC(=O)NCc1cc(-c2ccn(-c3c(F)cc(OC4COC4)cc3F)n2)ccc1C` [Compound 21], the “Test D disease control rating” value in test [1] is 100%. Also, the “Test B disease control rating” value in test [2] amounted to 55%.
With `COC(=O)NCc1cc(-c2ccn(-c3c(F)cc(OCC(F)(F)F)cc3F)n2)ccc1C` [Compound 22], the pest or weed control at 10 ppm turned out to be 100% in test [1] and 99% in test [2].
As to `COC(=O)NCc1cc(-c2ccn(-c3c(F)cc(OCC4CCCO4)cc3F)n2)ccc1C` (stereo not shown) [Compound 23], in test [1], the “Test D disease control rating” value is reported as 25%. Further, the “Test B disease control rating” value in test [2] came out at 68%.
In the case of `COC(=O)NCc1cc(-c2ccn(-c3c(F)cc(NC(=O)OC)cc3F)n2)ccc1C` [Compound 24], in test [1], the “Test D disease control rating” value is 75%. In addition, the “Test B disease control rating” value in test [2] is reported as 0%.
For `COC(=O)NCc1cc(-c2ccn(-c3c(F)cc(NC(C)=O)cc3F)n2)ccc1C` [Compound 25] the same measures were 81% and 8%.
Take `COC(=O)NCc1cc(-c2ccn(-c3c(F)cc(I)cc3SC)n2)ccc1C` [Compound 26]: the figures for the pest or weed control at 10 ppm in test [1] and in test [2] were 87% and 73%, respectively.
In the case of `COC(=O)NCc1cc(-c2ccn(-c3c(F)cc(SC)cc3F)n2)ccc1C` [Compound 27], the pest or weed control at 10 ppm was 100% in test [1] and 99% in test [2].
For `COC(=O)NCc1cc(-c2ccn(-c3c(F)cc(SC)cc3SC)n2)ccc1C` [Compound 28] the same measures were 100% and 0%.
In the case of `COC(=O)NCc1cc(-c2ccn(-c3c(F)cc(OC(F)(F)C(F)F)cc3F)n2)ccc1C` [Compound 29], the “Test D disease control rating” value in test [1] was 100%. Further, the “Test B disease control rating” value in test [2] came out at 100%.
In the case of `COC(=O)NCc1cc(-c2ccn(-c3c(F)cc(OCC4CCC4)cc3F)n2)ccc1C` [Compound 31], the “Test D disease control rating” value in test [1] is 0%. For the same compound, the “Test B disease control rating” value in test [2] is reported as 91%.
As for `COC(=O)NCc1cc(-c2ccn(-c3c(F)cc(OCC4COC4)cc3F)n2)ccc1C` [Compound 32], in test [1], the “Test D disease control rating” value was 77%. The “Test B disease control rating” value in test [2] worked out at 0%.
In the case of `COC(=O)NCc1cc(-c2ccn(-c3c(C)cc([N+](=O)[O-])cc3C)n2)ccc1C` [Compound 35], the pest or weed control at 10 ppm in test [1] and in test [2] was 0% throughout.
Consider `CNc1cc(F)c(-n2ccc(-c3ccc(C)c(CNC(=O)OC)c3)n2)c(F)c1` [Compound 36], for which the pest or weed control at 10 ppm came to 100% in test [1] and 68% in test [2].
As for `COC(=O)NCc1cc(-c2ccn(-c3c(F)cc([N+](=O)[O-])cc3Cl)n2)ccc1C` [Compound 37], the pest or weed control at 10 ppm is 0% in test [1] and 26% in test [2].
Regarding `COC(=O)NCc1cc(-c2ccn(-c3c(C)cc(N)cc3C)n2)ccc1C` [Compound 38], the pest or weed control at 10 ppm in test [1] and in test [2] was 0% each time.
Regarding `COC(=O)NCc1cc(-c2ccn(-c3c(F)cc(N)cc3Cl)n2)ccc1C` [Compound 39], the pest or weed control at 10 ppm in test [1] and in test [2] was 0% each time.
For the compound `COC(=O)NCc1cc(-c2ccn(-c3c(C)cc(OC)cc3C)n2)ccc1C` [Compound 40], the pest or weed control at 10 ppm is 99% in test [1] and 0% in test [2].
As for `COC(=O)NCc1cc(-c2ccn(-c3c(F)cc(C4CC4)cc3F)n2)ccc1C` [Compound 41, methyl N-[[5-[1-(4-cyclopropyl-2,6-difluorophenyl)-1H-pyrazol-3-yl]-2-methylphenyl]methyl]carbamate], the pest or weed control at 10 ppm in test [1] and in test [2] was 100% each time.
Regarding `COC(=O)NCc1cc(-c2ccn(-c3c(F)cc(SC(C)(C)C)cc3F)n2)ccc1C` [Compound 42, methyl N-[[5-[1-[4-[(1,1-dimethylethyl)thio]-2,6-difluorophenyl]-1H-pyrazol-3-yl]-2-methylphenyl]methyl]carbamate], the pest or weed control at 10 ppm is 73% in test [1] and 100% in test [2].
For `COC(=O)NCc1cc(-c2ccn(-c3c(F)cc(SC(F)F)cc3F)n2)ccc1C` [Compound 43, methyl N-[[5-[1-[4-[(difluoromethyl)thio]-2,6-difluorophenyl]-1H-pyrazol-3-yl]-2-methylphenyl]methyl]carbamate] the same measures were 100% and 100%.
The matching figures for `COC(=O)NCc1cc(-c2ccn(-c3c(Cl)cccc3Cl)n2)ccc1C` [Compound 44]: 100% and 68%.
The matching figures for `COC(=O)NCc1cc(-c2ccn(-c3c(F)cccc3I)n2)ccc1C` [Compound 45]: 100% and 0%.
As for `COC(=O)NCc1cc(-c2ccn(-c3c(F)cccc3Br)n2)ccc1C` [Compound 46], the pest or weed control at 10 ppm in test [1] was 100%; in test [2], 68%.
Turning to `COC(=O)NCc1cc(-c2ccn(-c3c(F)cccc3Cl)n2)ccc1C` [Compound 47], the pest or weed control at 10 ppm in test [1] turned out to be 100%; in test [2], 74%.
For `COC(=O)NCc1cc(-c2ccn(-c3c(C)cc(Br)cc3C)n2)ccc1C` [Compound 48] the same measures were 99% and 68%.
For the compound `COC(=O)NCc1cc(-c2ccn(-c3c(C)cc(Cl)cc3C)n2)ccc1C` [Compound 49], the pest or weed control at 10 ppm came to 99% in test [1] and 68% in test [2].
The matching figures for `COC(=O)NCc1cc(-c2ccn(-c3c(F)cc(Br)cc3Cl)n2)ccc1C` [Compound 50]: 100% and 100%.
`COC(=O)NCc1cc(-c2ccn(-c3c(F)cc(Cl)cc3Cl)n2)ccc1C` [Compound 51]: the pest or weed control at 10 ppm in test [1] and in test [2] was 100% in each case.
For `COC(=O)NCc1cc(-c2ccn(-c3c(Br)cccc3I)n2)ccc1C` [Compound 52], the figures for the pest or weed control at 10 ppm in test [1] and in test [2] were 99% and 0%, respectively.
